Source: ChEMBL document CHEMBL1124044, “4-N-hydroxy-L-2,4-diaminobutyric acid. A strong inhibitor of glutamine synthetase” (J Med Chem, 1988)

Legend:
[1] = test system: Glutamine synthetase (Ovis aries); conditions: at 0.2 mM
[2] = test system: Glutamine synthetase (Glycine max); conditions: at 0.2 mM
[3] = test system: Glutamine synthetase (Ovis aries); test: Percent inhibition was measured on Sheep Brain […] at 0.1 mM concentration
[4] = test system: Glutamine synthetase (Ovis aries); conditions: at 0.5 mM
[5] = test system: Glutamine synthetase (Glycine max); conditions: at 0.1 mM
[6] = test system: Glutamine synthetase (Glycine max); conditions: at 0.5 mM
[7] = test system: Glutamine synthetase (Ovis aries); test: Percent inhibition was measured on Sheep Brain Glutamine synthetase at 0.1 mM concentration
[8] = test system: Glutamine synthetase (Glycine max); test: Percent inhibition was measured on Soybean Glutamine synthetase at 0.5 mM concentration
[9] = test system: Glutamine synthetase (Ovis aries); test: Percent inhibition was measured on Sheep Brain Glutamine synthetase at 0.2 mM concentration
[10] = test system: Glutamine synthetase (Ovis aries); test: Percent inhibition was measured on Sheep Brain Glutamine synthetase at 0.5 mM concentration
[11] = test system: Glutamine synthetase (Glycine max); test: Percent inhibition was measured on Soybean Glutamine synthetase at 0.2 mM concentration

inhibition [1] [%] | inhibition [2] [%] | inhibition [3] [%] | inhibition [4] [%] | inhibition [6] [%] | SMILES | inhibition [5] [%] | inhibition [7] [%] | inhibition [8] [%] | inhibition [9] [%] | inhibition [10] [%] | inhibition [11] [%]
4 | 0 | 0 | 8 | 0 | CNO | 0 |  |  |  |  | 
 |  |  |  |  | NCC(O)CCC(N)C(=O)O (configuration not stated) | 5 | 5 | 21 | 11 | 22 | 9
